From paper PMC6201103, “The Small-Compound Inhibitor K22 Displays Broad Antiviral Activity against Different Members of the Family Flaviviridae and Offers Potential as a Panviral Inhibitor” (Antimicrobial Agents and Chemotherapy, 2018)

Legend:
[1] = MTT cell proliferation assay; type: cell-based; conditions: human, Huh7-Lunet-N-hCD81-FLuc cells, 48 h posttreatment
[2] = test system: Huh7-Lunet-N-hCD81-FLuc cells; assay: MTT cell proliferation assay; type: cell-based
ZIKV [3] = assay: Combination treatment, ZIKV titers (TCID50) in Vero B4 cells; conditions: for combination index (CI): CompuSyn
[4] = Proliferation, MultiTox-Fluor multiplex cytotoxicity assay on BT cells; type: cell-based, bovine; conditions: bovine, MultiTox-Fluor assay
Method: (§1) To evaluate the effect of K22 on cell viability, proliferation, as well as cytotoxicity, uninfected cells were treated with the compound at the concentrations specified above or with DMSO as a control. To determine the effect of K22 on cell viability, Vero cells were collected and labeled with the Fixable Aqua dead cell stain kit (Thermo Fisher Scientific) for 30 min on ice, before the cells were washed with cold PBS and fixed for flow cytometry analysis. As a positive control for cell death, cells were heated at 65°C for 30 min. The mean fluorescence intensity (MFI) was determined by flow cytometry analysis on a FACSCanto II flow cytometer (BD Bioscience) and evaluated using FlowJo (v.9.1) software. […] The compound was added at the concentrations indicated above, and cytotoxicity was determined at 24 and/or 48 h p.i. by determination of the absorbance at 490 nm using a plate reader (VersaMax [Molecular Devices, Wokingham, UK] or an EnSpire 2300 multilabel reader [PerkinElmer, Schwerzenbach, Switzerland]). Cell proliferation following compound treatment was determined using a MultiTox-Fluor multiplex cytotoxicity assay (catalog number G9200; Promega) according to the manufacturer's recommendations. The readout was performed using a multilabel reader (EnSpire 2300 multilabel reader; PerkinElmer) upon excitation at ∼400 nm and emission at ∼505 nm. […]

BT cells = assay: as above; type: cell-based, bovine
Method: as §1

HCV = HCV infectivity, supernatant transferred onto naive Huh7-Lunet-N-hCD81-FLuc cells, Renilla luciferase; type: cell-based, hepatitis C virus
ZIKV [5] = assay: Direct effect on virus stability: ZIKV preincubated with K22, then titrated; type: cell-based, Zika virus; conditions: 2 h at room temperature, increasing K22 concentrations
Method: Shortly, the compound was diluted in DMSO to reach the desired concentrations (0, 5, 10, 20, 30, and 40 μM) and incubated with the cells for 2 h prior to infection, during infection, or after a period of 2, 6, 10, 14, 18, 22, or 24 h. […] Next, the inoculum was discarded, the cells were washed with prewarmed PBS, and culture medium was added to the wells. Additionally, in order to analyze the direct effect of K22 on virus stability, ZIKV in DMEM was incubated for 2 h at room temperature with the different K22 concentrations and titrated in 10-fold serial dilution on Vero cells for measurement of virus infectivity as described above.

ZIKV [6] = assay: ZIKV infectivity (TCID50 titration of supernatant) and replication (E protein flow cytometry) in K22-treated Vero cells; type: cell-based, Zika virus; conditions: for IC50: Zika virus, Vero cells, MOI 0.1 TCID50/cell
Method: To test the effect of K22 on flavivirus, hepacivirus, and pestivirus infection, 8 × 10^4 Vero cells were seeded in 12-well dishes (flaviviruses), 5 × 10^4 Huh7-Lunet-N-hCD81-FLuc cells were seeded in 12-well dishes (hepacivirus), or 1 × 10^4 BT cells were seeded in 96-well dishes (pestivirus). At 1 day postseeding, cells were treated with different concentrations of K22 (diluted in DMSO at the concentrations indicated below) for 3 to 4 h and preincubated in 5% CO2 at 37°C. Cells were infected with different viruses at a multiplicity of infection (MOI) of 0.1 TCID50/cell for 1 h at 37°C. For HCV infection, cells were infected with JcR-2a or HCV Jc1 for 3 h at 37°C. Afterwards, cells were washed with prewarmed phosphate-buffered saline (PBS) solution, before cell culture medium supplemented with K22 or the DMSO control at each concentration was added, and incubated at 37°C in a 5% CO2 atmosphere. At 24 h and/or 48 h postinfection (p.i.), supernatants and cells were collected for further analysis.
Flavivirus replication and the cytopathic effect (CPE) were evaluated from collected cells. Cells in suspension were first labeled with the Fixable Aqua dead cell stain kit (Thermo Fisher Scientific, Waltham, MA, USA) for 30 min on ice, followed by washing with cold PBS. […] After washing, anti-mouse IgG2a conjugated with Alexa Fluor 647 (Thermo Fisher Scientific) was added for 15 min, and the cells were acquired on a FACSCanto II flow cytometer (BD Biosciences, Allschwil, Switzerland). FlowJo (v.9.1) software (TreeStar, Inc., Ashland, OR, USA) was used for analysis. Cell debris and doublets were excluded by electronic gating in forward/side scatter plots. Cell culture supernatants were collected at 24 and 48 h p.i., and the flavivirus titers in Vero cells were determined using the immunoperoxidase monolayer assay (IPMA). For that, supernatants 10-fold diluted in cell culture medium supplemented with 2% (vol/vol) FBS were incubated on Vero cells for 72 h at 37°C in a 5% CO2 atmosphere. At that point, cells were fixed in 4% (wt/vol) PFA for 10 min at room temperature, washed, and immunolabeled with anti-flavivirus group antigen antibody 4G2 diluted in 0.3% (wt/vol) saponin in PBS for 30 min at 37°C and then washed and incubated for another 30 min at 37°C with goat anti-mouse IgG conjugated with horseradish peroxidase (Dako), followed by incubation for 10 to 30 min at room temperature with 3-amino-9-ethylcarbazole (AEC) substrate (Sigma-Aldrich).

BVDV SuwaNcp = assay: microbe, parasite or virus in culture; type: cell-based, bovine viral diarrhea virus

Which results are given for `O=C(N/C(=C\c1ccccc1)C(=O)N1CCC(O)(c2ccc(Br)cc2)CC1)c1ccccc1` [K22, (Z)-N-{3-[4-(4-bromophenyl)-4-hydroxypiperidin-1-yl]-3-oxo-1-phenylprop-1-en-2-yl} benzamide]?
CC50 at 48 h [1]: 21300 nM; K22 concentrations affecting the cells used for infection [2]: ≥ 20 µM; reduction of ZIKV viral titers (ZIKV [3]; 5 to 10 μM K22 combined with ≥10 IU IFN-α, 24 h p.i., no further impact on cell proliferation): at least 3 orders of magnitude; combination index (CI) (ZIKV [3]; K22 10 to 30 μM with 10 IU IFN-α, slight synergism): < 1; combination index (CI) (ZIKV [3]; K22 and RBV, concentrations causing only partial inhibition, additive effect): about 1; effect of combination on antiviral effect of K22 (ZIKV [3]; K22 with either 0.1 or 1 μg/ml RBV): did not improve the antiviral effect of K22; CC50 [4]: > 350000 nM; K22 concentrations affecting cell proliferation (BT cells): ≥ 30 µM; SI (selectivity index), HCV (HCV): 9.7; IC50 (HCV; Hepatitis C virus, 72 h, read-out: IC50 for infectivity, HCV): 2200 nM; effect of preincubation of ZIKV with K22 on infectivity (ZIKV [5]): does not affect ZIKV infectivity; SI (selectivity index), ZIKV (ZIKV [6]; 24 h p.i.): 35.6; SI (selectivity index), ZIKV (ZIKV [6]; 48 h p.i.): 39.9; IC50 (ZIKV [6]; 24 h p.i.): 2500 nM; IC50 (ZIKV [6]; 48 h p.i.): 2100 nM; reduction of ZIKV viral titers (ZIKV [6]; higher concentrations of K22, Vero cells): up to 4 orders of magnitude; SI (selectivity index), BVDV SuwaNcp (BVDV SuwaNcp): >16.4; K22 concentration necessary to significantly reduce infectivity of BVDV SuwaNcp (BVDV SuwaNcp; BT cells): ≥ 40 µM; IC50 (BVDV SuwaNcp; Bovine viral diarrhea virus isolates and strains, read-out: IC50 for infectivity, BVDV SuwaNcp): 21400 nM
